Columns and labels:
Assay type in all cases: in vivo
[1] = tested on: female Musca domestica (WRL strain); assay: Lethal activity against house flies (topical application, with and without piperonyl butoxide); conditions: mortality after 48 hrs; for LD50 (synergised): with synergist 6 μg piperonyl butoxide per insect
Procedure: The test compound was applied with the application of the synergist (6 μg piperonyl butoxide (PB) per insect). Mortality was assessed after 48 hrs.

[2] = tested on: female Culex quinquefasciatus; assay: Knockdown activity against mosquitoes (wind tunnel spray); conditions: for KD10 min % effect: 10 min; for Kill: 24 hrs
Procedure: The knockdown activity of compounds was assessed as follows: Caged female Culex quinquefasciatus were sprayed in a wind tunnedl with 0.2 ml of a solution of the compound in odourless petroleum distillate (OPD)/dichloromethane (80/20) and knockdown was assessed at minute intervals for 10 mins. The insects were transferred to a holding cup and kept for 24 hrs with sugar/water. Mortalities were assessed at 24 hrs.

[3] = tested on: Mixed sex Musca domestica; assay: Knockdown activity against houseflies (Kearns and March chamber spray); conditions: for KD10 min % effect: 10 min
Procedure: Mixed sex Musca domestica were held in a Kearns and March chamber and sprayed with 0.2 ml of a solution of the compound in OPD/dichloromethane. Knockdown was assessed at 1 min. intervals for 10 mins.

Sitophilus granarius = assay: Activity against grain beetles (deposits on grain); conditions: 6 days
Procedure: Mortality was assessed after 6 days.

male Blattella germanica = assay: Activity against cockroaches (deposit on glass)
Procedure: Knockdown was assessed after 10 and 60 minutes and mortality after 1 day and 6 days.

[4] = tested on: third instar larvae of Aedes aegypti; assay: Activity against mosquito larvae (aqueous suspension); conditions: 2.5 ppm cpd (+ 12.5 pb)
[5] = tested on: Mustard Beetle (Phaedon cochleariae) second-instar larvae; assay: Activity against mustard beetle larvae (topical application)
Procedure: Second-instar larvae were used in all the tests and compounds were applied topically to the dorsal surface of the abdomen, using a microapplicator. Between 10 and 33 larvae were used at each concentration of the chemicals. Analar acetone and Analar butanone were used as solvents. In the first tests a 0.5 μl droplet was applied to each larva but after this the droplet size was increased to 1 μl as the larvae were unaffected by the solvents.
After treatment, all the larvae (usually 20) tested at a particular concentration were confined together on turnip leaves. The leaves were placed on damp filter paper in a petri dish and covered with a second layer of filter paper in the lid of the dish.
The petri dishes were maintained in an incubator at 20° C. and 16 h light. The turnip leaves were replaced as they were eaten by the larvae.
The larvae were assessed at intervals, from 1 h to 216 h after treatment. The following categories were used to classify the larvae:
i. Healthy larvae which were feeding and moved around the dish

[6] = tested on: fully engorged female Boophilus microplus, susceptible strain; assay: Activity against the cattle tick, injection; conditions: 10 μg/tick, 14 days
Procedure: The compound was supplied as a […] solution in DMSO:Acetone (1:1). Administration of the compound was by means of a microapplicator which was preset to deliver 0.2 μl of solution. The compound in solution was injected into fully engorged female Boophilus microplus, susceptible strain, at a site just lateral to the mouthparts at the rate of 10 μg/tick. Reducing the concentration reduced the dose delivered.
After injection the ticks were maintained at 24° C. and 85% RH for 14 days. At this time the ticks were examined for the presence of viable eggs which gave the percent inhibition of reproduction (% IR).

[7] = 0.03 % cpd (0.15 piperonyl butoxide)
[8] = 0.3 % cpd (1.5 piperonyl butoxide)
[9] = 0.1 % cpd (piperonyl butoxide entry printed "^")
[10] = 500 μg/ml, 1 hour after treatment
[11] = 500 μg/ml, 20 hours after treatment
[12] = 1000 μg/ml, 1 hour after treatment
[13] = 1000 μg/ml, 20 hours after treatment
[14] = 0.1 % cpd (0.5 piperonyl butoxide)

SMILES: CC(C)CNC(=O)/C=C/C=C/CCCCOCc1cccc(C(F)(F)F)c1 [Example 2, N-isobutyl 9-(3'trifluoromethylbenzyloxy)-(2E,4E)-nonadienamide]
- LD50 (synergised) [1]: 0.2 μg/fly
- kT50 [2, 7]: 8.6 min
- KD10 min % effect [2, 7]: 56%
- Kill [2, 7]: 4%
- kT50 [2, 8]: 1.2 min
- KD10 min % effect [2, 8]: 100%
- Kill [2, 8]: 71%
- kT50 [3, 9]: 6.1 min
- KD10 min % effect [3, 9]: 86%
- % mortality (Sitophilus granarius; 20 ppm cpd (+ 100 pb)): 84%
- % mortality 1 day (male Blattella germanica; 1400 mg/m^2 (+ 1400 pb)): 50%
- % mortality 6 day (male Blattella germanica; 1400 mg/m^2 (+ 1400 pb)): 50%
- % mortality [4]: 100%
- Dead (number of larvae) [5, 10]: 0
- Healthy (number of larvae) [5, 10]: 0
- Paralysed (number of larvae) [5, 10]: 33
- Dead (number of larvae) [5, 11]: 24
- Healthy (number of larvae) [5, 11]: 9
- Paralysed (number of larvae) [5, 11]: 0
- Dead (number of larvae) [5, 12]: 0
- Healthy (number of larvae) [5, 12]: 0
- Paralysed (number of larvae) [5, 12]: 33
- Dead (number of larvae) [5, 13]: 29
- Healthy (number of larvae) [5, 13]: 4
- Paralysed (number of larvae) [5, 13]: 0

SMILES: CC(C)CNC(=O)/C=C/C=C/CCCCCCOCc1cc(C(F)(F)F)cc(C(F)(F)F)c1 [Example 4, N-isobutyl 11-(3',5'-bis-trifluoromethylbenzyloxy)-(2E,4E)-undecadienamide]
- LD50 (synergised) [1]: 0.025 μg/fly
- LD50 (unsynergised) ([1]; without synergist): 0.12 μg/fly
- % mortality (Sitophilus granarius; 50 ppm cpd (+ 500 pb)): 100%
- % mortality 1 day (male Blattella germanica; 700 mg/m^2 (+ 700 pb)): 32%
- % mortality 6 day (male Blattella germanica; 700 mg/m^2 (+ 700 pb)): 32%

SMILES: CC(C)CNC(=O)/C=C/C=C/CCCCCOCc1ccccc1 [Example 8, N-iso-butyl 10-(benzyloxy)-(2E,4E)-decadienamide]
- LD50 (synergised) [1]: > 5 μg/fly

SMILES: CC(C)CNC(=O)/C=C/C=C/CCCCOCCOc1cc(Cl)cc(Cl)c1 [Example 66, N--isobutyl 9-(2-(3',5'-dichlorophenoxy)-ethoxy)-nona-2E, 4E-dienamide]
- kT50 [2, 14]: 1.2 min
- KD10 min % effect [2, 14]: 96%
- Kill [2, 14]: 40%
- kT50 [3, 14]: 5.1 min
- KD10 min % effect [3, 14]: 96%

SMILES: CC(C)C(C)NC(=O)/C=C/C=C/CCCCOCc1ccc(OC(F)(F)F)cc1 (stereo not shown) [Example 85]
- % IR (percent inhibition of reproduction) [6]: 100%
- mortality at 10 µg/tick ([6]; Rhipicephalus microplus, 336 h, read-out: % kill): 50%

SMILES: CC(C)ONC(=O)/C=C/C=C/CCCCOCc1cccc(C(F)(F)F)c1 [Example 89]
- LD50 (synergised) [1]: > 5 μg/fly

SMILES: CC(NC(=O)/C=C/C=C/CCCCCCOCc1cc(C(F)(F)F)cc(C(F)(F)F)c1)C(C)(C)C (stereo not shown) [Example 108]
- LD50 (synergised) [1]: 0.09 μg/fly

SMILES: CC1(C)CC1NC(=O)/C=C/C=C/CCCCCCOCc1cc(C(F)(F)F)cc(C(F)(F)F)c1 (stereo not shown) [Example 109]
- LD50 (synergised) [1]: 0.09 μg/fly

SMILES: CC(C)CNC(=O)/C=C/C=C/CCCCC(=O)Cc1cccc(C(F)(F)F)c1 [Example 122, N--Isobutyl 11-(3-trifluoromethylphenyl)-10-oxo-undeca-2E,-dienamide]
- LD50 (synergised) [1]: > 1.5 μg/fly

SMILES: CCC(CCC/C=C/C=C/C(=O)NCC(C)C)N(C)Cc1ccccc1 (stereo not shown) [Example 126, N--Isobutyl N'--methyl-N'--benzyl-9-aminoundeca-2E, 4E-dienamide]
- LD50 (synergised) [1]: > 20 μg/fly

Reference: US4713200A, “Pesticidal compounds” (Burroughs Wellcome Co., priority 1984, dated 1987)
